Source: ChEMBL document CHEMBL1201862, “PubChem BioAssay data set” (2004)
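48-hour exposure; five concentrations; linearly interpolated endpoints. GI50: concentration for 50% inhibition of growth.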 Active and inactive are the calls of the source. Cut-off read from the data, not from the text of the source: active = GI50 up to about 1.1 µM and inactive = higher.

What was measured:
Test in all cases: DTP human tumour cell line panel, 48 h
A498 = system: A498
ACHN = system: ACHN
CCRF-CEM = system: CCRF-CEM
HCT-15 = system: HCT-15
HL-60 = system: HL-60
KM12 = system: KM12
NCI-H226 = system: NCI-H226
NCI-H23 = system: NCI-H23
NCI-H522 = system: NCI-H522
SF-268 = system: SF-268
SF-295 = system: SF-295
UACC-257 = system: UACC-257
UO-31 = system: UO-31
DU-145 = system: DU-145
Hs-578T = system: Hs-578T
MDA-MB-231 = system: MDA-MB-231
MDA-MB-435 = system: MDA-MB-435
PC-3 = system: PC-3
MCF7 = system: MCF7
MDA-N = system: MDA-N

With COc1cc(C(Cc2ccccc2)NC(C)=O)oc(=O)c1 (configuration not stated) the GI50 (A498) was > 100 µM (inactive), the GI50 (ACHN) was > 100 µM (inactive) and the GI50 (CCRF-CEM) was > 100 µM (inactive). The GI50 (HCT-15) was greater than 100 µM, the GI50 (HL-60) was > 100 µM (inactive) and the GI50 (KM12) was > 100 µM (inactive). The GI50 (NCI-H226) was > 100 µM (inactive), the GI50 (NCI-H23) was > 100 µM (inactive) and the GI50 (NCI-H522) was > 100 µM (inactive). For the same molecule, the GI50 (SF-268) was 89.1 µM (inactive), the GI50 (SF-295) was > 100 µM (inactive) and the GI50 (UACC-257) was > 100 µM (inactive). The GI50 (UO-31) was > 100 µM (inactive).
With C[N+](C)([O-])Cc1cc(-c2ccccc2)ccc1O the GI50 (A498) was > 100 µM (inactive), the GI50 (ACHN) was > 100 µM (inactive) and the GI50 (DU-145) was > 100 µM (inactive). For the same molecule, the GI50 (HCT-15) was greater than 100 µM, the GI50 (Hs-578T) was 79.3 µM (inactive) and the GI50 (KM12) was > 100 µM (inactive). For the same molecule, the GI50 (MDA-MB-231) was > 100 µM (inactive), the GI50 (MDA-MB-435) was > 100 µM (inactive) and the GI50 (NCI-H226) was > 100 µM (inactive). The GI50 (NCI-H23) was > 100 µM (inactive), the GI50 (NCI-H522) was > 100 µM (inactive) and the GI50 (PC-3) was > 100 µM (inactive). For the same molecule, the GI50 (SF-268) was > 100 µM (inactive), the GI50 (SF-295) was > 100 µM (inactive) and the GI50 (UACC-257) was > 100 µM (inactive). For the same molecule, the GI50 (UO-31) was > 100 µM (inactive).
In the case of CCCCC(C(=O)NCCNC(=O)CCC(=O)N(C)O)C(=O)NCCNC(=O)CCC(=O)N(C)O, the GI50 (A498) is reported as > 100 µM (inactive), the GI50 (ACHN) is reported as > 100 µM (inactive) and the GI50 (CCRF-CEM) is reported as > 100 µM (inactive). For the same molecule, the GI50 (DU-145) was > 100 µM (inactive), the GI50 (HCT-15) was greater than 100 µM and the GI50 (HL-60) was > 100 µM (inactive). For the same molecule, the GI50 (KM12) was > 100 µM (inactive), the GI50 (MCF7) was > 100 µM (inactive) and the GI50 (MDA-MB-231) was > 100 µM (inactive). For the same molecule, the GI50 (MDA-MB-435) was > 100 µM (inactive), the GI50 (MDA-N) was > 100 µM (inactive) and the GI50 (NCI-H226) was > 100 µM (inactive). The GI50 (NCI-H23) was > 100 µM (inactive), the GI50 (NCI-H522) was > 100 µM (inactive) and the GI50 (PC-3) was > 100 µM (inactive). The GI50 (SF-295) was > 100 µM (inactive), the GI50 (UACC-257) was > 100 µM (inactive) and the GI50 (UO-31) was > 100 µM (inactive).
With OC(c1ccc(C(F)(F)F)cc1)C(F)(F)c1nc2ccccc2o1 (configuration not stated) the GI50 (ACHN) was > 100 µM (inactive), the GI50 (CCRF-CEM) was > 100 µM (inactive) and the GI50 (DU-145) was > 100 µM (inactive). The GI50 (HCT-15) was greater than 100 µM, the GI50 (HL-60) was > 100 µM (inactive) and the GI50 (Hs-578T) was > 100 µM (inactive). For the same molecule, the GI50 (KM12) was > 100 µM (inactive), the GI50 (MCF7) was > 100 µM (inactive) and the GI50 (MDA-MB-231) was > 100 µM (inactive). For the same molecule, the GI50 (MDA-MB-435) was > 100 µM (inactive), the GI50 (NCI-H226) was > 100 µM (inactive) and the GI50 (NCI-H23) was > 100 µM (inactive). The GI50 (PC-3) was > 100 µM (inactive), the GI50 (SF-268) was > 100 µM (inactive) and the GI50 (SF-295) was > 100 µM (inactive). For the same molecule, the GI50 (UACC-257) was > 100 µM (inactive) and the GI50 (UO-31) was > 100 µM (inactive).
Nc1ccc(C(=O)CC2(O)C(=O)Nc3c(Cl)cc(Cl)cc32)cc1 (configuration not stated) was tested, and the GI50 (A498) was > 100 µM (inactive), the GI50 (ACHN) was 94.8 µM (inactive) and the GI50 (CCRF-CEM) was 16.4 µM (inactive). For the same molecule, the GI50 (HCT-15) was 69.7 µM, the GI50 (HL-60) was 24.9 µM (inactive) and the GI50 (KM12) was 83 µM (inactive). The GI50 (NCI-H226) was > 100 µM (inactive), the GI50 (NCI-H23) was 83 µM (inactive) and the GI50 (NCI-H522) was 42.5 µM (inactive). The GI50 (SF-268) was > 100 µM (inactive), the GI50 (SF-295) was > 100 µM (inactive) and the GI50 (UACC-257) was 75.5 µM (inactive). The GI50 (UO-31) was > 100 µM (inactive).
In the case of C=C1CCC2C(C)(CO)C(O)CCC2(C)C1CC(O)C1=CCOC1=O (configuration not stated), the GI50 (A498) is reported as > 100 µM (inactive), the GI50 (ACHN) is reported as 60.7 µM (inactive) and the GI50 (CCRF-CEM) is reported as 22.9 µM (inactive). For the same molecule, the GI50 (HCT-15) was 27.4 µM, the GI50 (HL-60) was 26.9 µM (inactive) and the GI50 (KM12) was 36.1 µM (inactive). The GI50 (NCI-H226) was 45.2 µM (inactive), the GI50 (NCI-H23) was > 100 µM (inactive) and the GI50 (NCI-H522) was 5.36 µM (inactive). The GI50 (SF-268) was > 100 µM (inactive), the GI50 (SF-295) was 46.2 µM (inactive) and the GI50 (UACC-257) was > 100 µM (inactive). The GI50 (UO-31) was > 100 µM (inactive).
For Oc1ccc(Cl)cc1C1=NC(NCNC2=NC(c3ccccc3)CC(c3cc(Cl)ccc3O)=N2)=NC(c2ccccc2)C1 (configuration not stated), the GI50 (A498) was > 100 µM (inactive), the GI50 (ACHN) was 43.6 µM (inactive) and the GI50 (CCRF-CEM) was 61 µM (inactive). For the same molecule, the GI50 (DU-145) was 44.2 µM (inactive), the GI50 (HCT-15) was 43.4 µM and the GI50 (HL-60) was > 100 µM (inactive). For the same molecule, the GI50 (KM12) was > 100 µM (inactive), the GI50 (MCF7) was 20.9 µM (inactive) and the GI50 (MDA-MB-231) was > 100 µM (inactive). For the same molecule, the GI50 (MDA-MB-435) was 47.9 µM (inactive), the GI50 (MDA-N) was 79.1 µM (inactive) and the GI50 (NCI-H226) was > 100 µM (inactive). For the same molecule, the GI50 (NCI-H23) was > 100 µM (inactive), the GI50 (PC-3) was > 100 µM (inactive) and the GI50 (SF-268) was 97.9 µM (inactive). For the same molecule, the GI50 (SF-295) was 79.1 µM (inactive), the GI50 (UACC-257) was > 100 µM (inactive) and the GI50 (UO-31) was 54.2 µM (inactive).
With CCOc1ncn(-c2ccc(NC(=S)NC3OC(CO)C(O)C(O)C3O)cc2)n1 (configuration not stated) the GI50 (CCRF-CEM) was > 100 µM (inactive), the GI50 (DU-145) was > 100 µM (inactive) and the GI50 (HCT-15) was greater than 100 µM. For the same molecule, the GI50 (HL-60) was > 100 µM (inactive), the GI50 (KM12) was > 100 µM (inactive) and the GI50 (MCF7) was > 100 µM (inactive). The GI50 (MDA-MB-231) was > 100 µM (inactive), the GI50 (MDA-MB-435) was > 100 µM (inactive) and the GI50 (MDA-N) was > 100 µM (inactive). For the same molecule, the GI50 (NCI-H23) was > 100 µM (inactive), the GI50 (NCI-H522) was > 100 µM (inactive) and the GI50 (PC-3) was > 100 µM (inactive). For the same molecule, the GI50 (SF-268) was > 100 µM (inactive), the GI50 (SF-295) was > 100 µM (inactive) and the GI50 (UACC-257) was > 100 µM (inactive). The GI50 (UO-31) was > 100 µM (inactive).
With [O-][N+]1=C(c2ccccc2)COc2ccccc21 the GI50 (A498) was > 100 µM (inactive), the GI50 (ACHN) was > 100 µM (inactive) and the GI50 (CCRF-CEM) was 85.1 µM (inactive). For the same molecule, the GI50 (HCT-15) was greater than 100 µM, the GI50 (HL-60) was > 100 µM (inactive) and the GI50 (KM12) was > 100 µM (inactive). The GI50 (NCI-H226) was > 100 µM (inactive), the GI50 (NCI-H23) was > 100 µM (inactive) and the GI50 (NCI-H522) was > 100 µM (inactive). The GI50 (SF-268) was > 100 µM (inactive), the GI50 (SF-295) was > 100 µM (inactive) and the GI50 (UACC-257) was > 100 µM (inactive). For the same molecule, the GI50 (UO-31) was > 100 µM (inactive).
